Molecules are shown by their SMILES. The source made the active and inactive calls. The calls are words filed in the database; no cut-off is given here.

Data set [1] addresses Amyloid-beta precursor protein (Homo sapiens) (UniProt P05067). As to the kind of experiment: Inhibition of HFIP-induced amyloid beta (1 to 42 residues) (unknown origin) aggregation at 1:1 protein to compound ratio preincubated for 15 mins followed by HFIP addition measured after 40 mins by silver staining-based native PAGE assay.
Data set [2] can be described thus: Cytotoxicity against human SH-SY5Y cells assessed as decrease in cell viability after 24 hrs by MTT assay. Type of data set: toxicity, cell-based. For orientation: Tetrazolium dyes change colour on reduction, which living cells bring about.
The target in data set [3] is Amyloid-beta precursor protein (Homo sapiens) (UniProt P05067). As to the kind of experiment: Inhibition of HFIP-induced amyloid beta (1 to 42 residues) (unknown origin) aggregation at 1:1 protein to compound ratio preincubated for 15 mins followed by HFIP addition measured after 40 mins by ANS extrinsic fluorescence assay relative to control.
The target is the same in data set [4]. Nature of the data set: Inhibition of HFIP-induced amyloid beta (1 to 42 residues) (unknown origin) aggregation at 1:0.5 protein to compound ratio preincubated for 15 mins followed by HFIP addition measured after 40 mins by ThT fluorescence assay.
A short description of data set [5]: Neuroprotective activity against amyloid beta (1 to 42 residues)-induced toxicity in human SH-SY5Y cells assessed as cell viability at 5 to 20 uM after 3 days by MTT assay (reference value: 28%). It is filed as functional.
Data set [6] has as its target Amyloid-beta precursor protein (Homo sapiens) (UniProt P05067). As to the kind of experiment: Inhibition of HFIP-induced amyloid beta (1 to 42 residues) (unknown origin) aggregation at 1:1 protein to compound ratio preincubated for 15 mins followed by HFIP addition measured after 40 mins by turbidity assay relative to control.
The target is the same in data set [7]. As to the kind of experiment: Inhibition of HFIP-induced amyloid beta (1 to 42 residues) (unknown origin) aggregation at 1:0.75 protein to compound ratio preincubated for 15 mins followed by HFIP addition measured after 40 mins by ThT fluorescence assay.
Data set [8] has the same target. As to the kind of experiment: Inhibition of HFIP-induced amyloid beta (1 to 42 residues) (unknown origin) aggregation at 1:0.25 protein to compound ratio preincubated for 15 mins followed by HFIP addition measured after 40 mins by ThT fluorescence assay relative to control.
Data set [9] shares this target. As to the kind of experiment: Inhibition of HFIP-induced amyloid beta (1 to 42 residues) (unknown origin) aggregation assessed as decrease in levels of higher aggregates at 1:1 protein to compound ratio preincubated for 15 mins followed by HFIP addition measured after 40 mins by silver staining-based native PAGE assay.
Data set [10] shares this target. Nature of the data set: Inhibition of HFIP-induced amyloid beta (1 to 42 residues) (unknown origin) aggregation at 1:1 protein to compound ratio preincubated for 15 mins followed by HFIP addition measured after 40 mins by ThT fluorescence assay relative to control.

Amyloid-beta precursor protein (Homo sapiens), sequence (P05067 whole entry, the tested form may be a part): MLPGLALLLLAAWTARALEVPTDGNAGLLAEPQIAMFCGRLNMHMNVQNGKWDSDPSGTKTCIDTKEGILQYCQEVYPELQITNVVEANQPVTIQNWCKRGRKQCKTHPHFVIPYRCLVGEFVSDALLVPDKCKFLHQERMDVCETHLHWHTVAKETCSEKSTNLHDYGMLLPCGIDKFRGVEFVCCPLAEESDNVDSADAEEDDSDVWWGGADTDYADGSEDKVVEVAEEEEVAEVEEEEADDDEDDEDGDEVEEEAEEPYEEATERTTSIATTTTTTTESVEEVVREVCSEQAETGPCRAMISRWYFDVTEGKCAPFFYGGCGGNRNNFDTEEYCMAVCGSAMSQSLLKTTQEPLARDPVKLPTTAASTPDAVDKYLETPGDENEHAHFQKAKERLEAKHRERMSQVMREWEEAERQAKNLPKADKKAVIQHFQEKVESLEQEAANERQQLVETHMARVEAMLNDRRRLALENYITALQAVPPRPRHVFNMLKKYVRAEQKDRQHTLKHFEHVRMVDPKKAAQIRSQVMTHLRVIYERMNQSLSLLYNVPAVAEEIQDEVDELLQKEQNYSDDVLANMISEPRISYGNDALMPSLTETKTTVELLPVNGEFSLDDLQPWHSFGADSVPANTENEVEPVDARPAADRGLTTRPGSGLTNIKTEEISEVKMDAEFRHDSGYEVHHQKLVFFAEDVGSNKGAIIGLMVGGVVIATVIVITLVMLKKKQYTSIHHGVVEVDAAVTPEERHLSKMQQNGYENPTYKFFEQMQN

Turning to `CC(=O)c1cc2ccccc2oc1=O` [3-ACETYLCOUMARIN], the inhibition entry in data set [1], in data set [4], in data set [7] and in data set [9] was “Active” throughout. In addition, the IC50 at 24 h in data set [2] (human, SH-SY5Y cells) is 75 µM. In addition, the inhibition came to 40% in data set [3], 59% in [6], 40% in data set [8] and 50% in data set [10]. Besides, in data set [5], the Activity was found to be 77%.

For `C/C(=N\NC(N)=S)c1cc2ccccc2oc1=O`, the inhibition entry in data set [1], in data set [4], in data set [7] and in data set [9] was “Active” throughout. The IC50 in data set [2] (sh-sy5y) is not above 185 µM. The inhibition in data set [3] amounted to 86%; in data set [6], 78%; in data set [8] it was 53%; in [10], 80%. Also, the Activity in [5] was 95%.

For the compound `Oc1c(I)cc(Cl)c2cccnc12`, the inhibition result in data set [1] is “Active”.

As a reminder, the inhibition is the drop in the measured response relative to a control, in per cent. As a reminder, the IC50 is the concentration that gives 50% inhibition.

The values above are taken from ChEMBL document CHEMBL3853268, “Thiosemicarbazone modification of 3-acetyl coumarin inhibits Aβ peptide aggregation and protect against Aβ-induced cytotoxicity” (Eur J Med Chem, 2016).
